The target in assay [1] is T1, Peptidyl-prolyl cis-trans isomerase FKBP5 (Homo sapiens) (UniProt Q13451).
T1 sequence (whole entry): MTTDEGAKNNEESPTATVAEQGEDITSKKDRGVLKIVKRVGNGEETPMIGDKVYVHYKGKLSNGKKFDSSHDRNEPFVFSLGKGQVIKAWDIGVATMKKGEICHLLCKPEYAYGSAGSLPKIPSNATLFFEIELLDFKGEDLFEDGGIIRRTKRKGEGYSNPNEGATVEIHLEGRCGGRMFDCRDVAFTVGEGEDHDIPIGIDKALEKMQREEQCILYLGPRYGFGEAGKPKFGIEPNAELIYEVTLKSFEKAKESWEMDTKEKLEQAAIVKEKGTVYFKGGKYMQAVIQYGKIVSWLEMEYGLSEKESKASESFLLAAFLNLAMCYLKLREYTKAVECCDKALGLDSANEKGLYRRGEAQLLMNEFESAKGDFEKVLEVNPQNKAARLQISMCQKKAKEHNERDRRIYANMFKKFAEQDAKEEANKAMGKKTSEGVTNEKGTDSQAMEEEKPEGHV
Description: Binding affinity to 15N-labeled FKBP51 (1 to 140 residues) (unknown origin) expressed in Escherichia coli OD2N assessed as induction of chemical shift perturbations by two-dimensional 1H/15N HSQC NMR spectroscopy.

Assay [2] deals with T2, Peptidyl-prolyl cis-trans isomerase FKBP5 (Homo sapiens, UniProt Q13451).
T2 sequence (Q13451 whole entry): T1 sequence (whole entry)
As to the kind of experiment: Binding affinity to 15N-labeled FKBP51 (1 to 140 residues) (unknown origin) expressed in Escherichia coli OD2N by two-dimensional 1H/15N HSQC NMR spectroscopy.

Assay [3] has as its target T1, Peptidyl-prolyl cis-trans isomerase FKBP5 (Homo sapiens). Description: Binding affinity to 15N-labeled FKBP51 (1 to 140 residues) (unknown origin) expressed in Escherichia coli OD2N assessed as induction of chemical shift perturbations at Ile87 residues by two-dimensional 1H/15N HSQC NMR spectroscopy.
The target is the same in assay [4]. Description: Binding affinity to 15N-labeled FKBP51 (1 to 140 residues) (unknown origin) expressed in Escherichia coli OD2N assessed as induction of chemical shift perturbations at Leu81, Gly82, Gln85, Ile87, Ala89, Trp90, Asp91, Met97, and Glu110 residues by two-dimensional 1H/15N HSQC NMR spectroscopy.

SMILES strings stand for the structures. Activity calls are given as the source filed them. The rule behind the calls is not given here.

As to `O=C1CNC(=O)N1`, the result in assay [1] was inactive.
In the case of `Oc1ccccn1`, binding in assay [2] was characterised by a dissociation constant (Kd) of 1.3 mM. Also, the result in assay [3] was Active.
As to `NC(=O)c1cccnc1`, the outcome in assay [1] was inactive.
As to `O=C1CCCCN1`, the Kd (in general, the free concentration of one partner at which half of the binding sites on the other are occupied at equilibrium, for simple one-to-one binding) in assay [2] was 2.8 mM. Moreover, the result in assay [4] was Active.
In turn, `Cc1c[nH]cn1` displayed a dissociation constant (Kd) in assay [2] of 2.9 mM. For the same compound, in assay [3], the result was Active.
As to `c1c[nH]cn1` [IMIDAZOLE], in assay [2], the Kd was 4.4 mM. For the same compound, the result in assay [3] was Active.

Values taken from ChEMBL document CHEMBL4602734, “Hybrid Screening Approach for Very Small Fragments: X-ray and Computational Screening on FKBP51” (J Med Chem, 2020).
